Test system: A. fumigatus CEA10 reference strain
Experiment: Fluconazole potentiator screen: MIC by CLSI microbroth dilution with and without fluconazole
Assay type: cell-based, Aspergillus fumigatus
Conditions: for MIC: Aspergillus fumigatus, read-out: MIC (ug/mL) (−) Fluc; for MIC / MIC (ug/mL) (+) Fluc: 18 h; for MIC (ug/mL) (+) Fluc: with 32 μg/ml fluconazole, normoxia, GMM, 37 °C; for potency / potentiation of fluconazole (in words): structure-activity statements, fluconazole potentiator screen

Compound | MIC | MIC (ug/mL) (+) Fluc | potency / potentiation of fluconazole (in words) | increase in potentiation of fluconazole (morpholine series, para-fluorophenyl substitution)
O=C(c1cccc(F)c1)N1CCC(Cc2ccc(COc3ccncc3)cc2)CC1 [MBX-7770] | 8.09 µg/mL | 8.09 µg/mL | – | –
Cc1cccc(S(=O)(=O)N2CCC3(CC2)CC(CCOc2ccncc2)CCO3)c1 (stereo not shown) [MBX-7870] | > 17 µg/mL | 6.09 µg/mL | – | –
O=S(=O)(N1CCOCC1)N1CCC2(CC1)CC(CCOc1ccncc1)CCO2 (stereo not shown) [MBX-7950] | 26.8 µg/mL | 13.40 µg/mL | complete loss of activity | –
CC(C)(O)c1ccc(C(=O)N2CCC(Cc3ccc(COc4ccncc4)cc3)CC2)cc1 [MBX-8139] | > 22 µg/mL | >22 µg/mL | – | –
COc1ccc(S(=O)(=O)N2CCC3(CC2)CC(CCOc2ccncc2)CCO3)cc1 (stereo not shown) [MBX-7953] | 5.58 µg/mL | 1.11 µg/mL | – | –
CC1CN(Cc2ccc(CC3CCN(S(=O)(=O)c4cccc(F)c4)CC3)cc2)CC(C)O1 (stereo not shown) [MBX-8190] | > 23 µg/mL | >23 µg/mL | not tolerated | –
COc1cccc(S(=O)(=O)N2CCC3(CC2)CC(CCOc2ccncc2)CCO3)c1 (stereo not shown) [MBX-7952] | 11.2 µg/mL | 2.79 µg/mL | – | –
O=C(c1ccsc1)N1CCC(Cc2ccc(COc3ccnc(O)c3)cc2)CC1 [MBX-8185] | > 20 µg/mL | >20 µg/mL | complete loss of activity | –
COc1cc(OCc2ccc(CC3CCN(C(=O)c4ccsc4)CC3)cc2)ccn1 [MBX-8142] | > 21 µg/mL | >21 µg/mL | complete loss of activity | –
O=C(c1ccc2c(c1)OCCO2)N1CCC(Cc2ccc(COc3ccncc3)cc2)CC1 [MBX-7772] | 12.6 µg/mL | 12.60 µg/mL | – | –
O=C(c1ccsc1)N1CC(Cc2ccc(COc3ccncc3)cc2)C1 [MBX-8305] | 9.1 µg/mL | 4.50 µg/mL | – | –
O=S(=O)(c1ccc(F)cc1)N1CCC(Cc2ccc(CN3CCN(CC(F)(F)F)CC3)cc2)CC1 [MBX-8438] | > 25 µg/mL | >25 µg/mL | – | –
O=C(c1ccsc1)N1CCC(Cc2ccc(COc3ccncc3)cn2)CC1 [MBX-8619] | 4.92 µg/mL | 1.23 µg/mL | – | –
Cn1ccc(C(=O)N2CCC(Cc3ccc(COc4ccncc4)cc3)CC2)c1 [MBX-7773] | 7.79 µg/mL | 15.60 µg/mL | antagonistic potentiation effect with the fluconazole | –
O=S(=O)(c1ccc(F)cc1)N1CCC(Cc2ccc(CN3CCOCC3)c(F)c2)CC1 [MBX-8356] | 0.6 µg/mL | 0.09 µg/mL | – | –
O=C(c1ccsc1)N1CCC(Cc2ccc(COc3ccncc3)cc2)C1 (stereo not shown) [MBX-8240] | 4.73 µg/mL | 2.37 µg/mL | – | –
COc1ccccc1S(=O)(=O)N1CCC2(CC1)CC(CCOc1ccncc1)CCO2 (stereo not shown) [MBX-7961] | > 89 µg/mL | >89 µg/mL | – | –
O=C(c1ccsc1)N1CC[C@H](Cc2ccc(COc3ccncc3)cc2)C1 [MBX-8432] | 4.16 µg/mL | 1.51 µg/mL | – | –
O=S(=O)(c1cccc(F)c1)N1CCN(Cc2ccc(CN3CCOCC3)cc2)CC1 [MBX-8189] | > 21 µg/mL | >21 µg/mL | – | –
N#Cc1ccc(C(=O)N2CCC(Cc3ccc(COc4ccncc4)cc3)CC2)cc1 [MBX-8088] | 6.5 µg/mL | 14.50 µg/mL | antagonistic effect | –

Compound | MIC | MIC (ug/mL) (+) Fluc | potency / potentiation of fluconazole (in words) | increase in potentiation of fluconazole (morpholine series, para-fluorophenyl substitution)
O=S(=O)(c1cccc(F)c1)N1CCC(Cc2ccc(CN3CC4(COC4)C3)cc2)CC1 [MBX-8244] | > 22 µg/mL | >22 µg/mL | – | –
COc1c(F)cccc1S(=O)(=O)N1CCC2(CC1)CC(CCOc1ccncc1)CCO2 (stereo not shown) [MBX-7958] | > 92 µg/mL | >92 µg/mL | – | –
O=S(=O)(c1ccc(F)cc1)N1CCC(Cc2ccc(Cc3ccncc3)cc2)CC1 [MBX-8428] | 10.6 µg/mL | 6.37 µg/mL | – | –
O=C(c1cccc(O)c1)N1CCC(Cc2ccc(COc3ccncc3)cc2)CC1 [MBX-7801] | > 16 µg/mL | >16 µg/mL | – | –
O=C(c1ccsc1)N1CCN(Cc2ccc(COc3ccncc3)cc2)CC1 [MBX-8030] | 1.9 µg/mL | 0.50 µg/mL | – | –
O=C(c1cccnc1)N1CCC(Cc2ccc(COc3ccncc3)cc2)CC1 [MBX-7730] | 15 µg/mL | 7.70 µg/mL | did not result in appreciable increase in potency | –
O=S(=O)(c1cccs1)N1CCC2(CC1)CN(CCOc1ccncc1)CCO2 [MBX-8310] | 21 µg/mL | 5.20 µg/mL | – | –
CN1CCN(Cc2ccc(CC3CCN(S(=O)(=O)c4ccc(F)cc4)CC3)cc2)CC1 [MBX-8436] | 4.46 µg/mL | 0.45 µg/mL | – | –
O=C(c1ccc2sccc2c1)N1CCC(Cc2ccc(COc3ccncc3)cc2)CC1 [MBX-8096] | > 22 µg/mL | >22 µg/mL | – | –
Cn1nccc1S(=O)(=O)N1CCC2(CC1)CC(CCOc1ccncc1)CCO2 (stereo not shown) [MBX-7914] | 8.34 µg/mL | 3.31 µg/mL | – | –
O=C(O)c1cccc(S(=O)(=O)N2CCC3(CC2)CC(CCOc2ccncc2)CCO3)c1 (stereo not shown) [MBX-7962] | > 92 µg/mL | >92 µg/mL | – | –
O=S(=O)(c1ccc(F)cc1)N1CCC(Cc2ccc(CN3CCn4cncc4C3)cc2)CC1 [MBX-8684] | 7.38 µg/mL | 1.30 µg/mL | – | –
O=S(=O)(c1ccoc1)N1CCC2(CC1)CC(CCOc1ccncc1)CCO2 (stereo not shown) [MBX-7875] | > 16 µg/mL | 8.00 µg/mL | – | –
CC(c1ccc(CC2CCN(S(=O)(=O)c3ccc(F)cc3)CC2)cc1)N1CCOCC1 (stereo not shown) [MBX-8357] | > 22 µg/mL | 5.60 µg/mL | – | –
O=C(c1ccsc1)N1CCC(Cc2ccc(COc3cc[n+]([O-])cc3)cc2)CC1 [MBX-8191] | > 20 µg/mL | >20 µg/mL | complete loss of activity | –
O=S(=O)(NC1CCC(Cc2ccc(CN3CCOCC3)cc2)CC1)c1ccc(F)cc1 (stereo not shown) [MBX-8283] | > 22 µg/mL | >22 µg/mL | – | –
O=S(=O)(c1cccs1)N1CCC2(CCc3cc(Oc4ccncc4)ccc3O2)CC1 [MBX-8435] | > 22 µg/mL | >22 µg/mL | – | –
N#Cc1cccc(S(=O)(=O)N2CCC3(CC2)CC(CCOc2ccncc2)CCO3)c1 (stereo not shown) [MBX-7910] | > 88 µg/mL | 22.00 µg/mL | – | –
c1cc(OCc2ccc(CC3CCNCC3)cc2)ccn1 [MBX-8147] | > 14 µg/mL | >14 µg/mL | – | –
O=S(=O)(c1cscn1)N1CCC2(CC1)CC(CCOc1ccncc1)CCO2 (stereo not shown) [MBX-7960] | 42 µg/mL | 10.60 µg/mL | – | –

Compound | MIC | MIC (ug/mL) (+) Fluc | potency / potentiation of fluconazole (in words) | increase in potentiation of fluconazole (morpholine series, para-fluorophenyl substitution)
CC(c1cccs1)N1CCC2(CC1)CC(CCOc1ccncc1)CCO2 (stereo not shown) [MBX-7954] | > 77 µg/mL | >77 µg/mL | – | –
O=S(=O)(c1ccsc1)N1CCc2cc(COc3ccncc3)ccc2C1 [MBX-8307] | 4.8 µg/mL | 2.40 µg/mL | – | –
O=S(=O)(c1ccccc1F)N1CCC(Cc2ccc(CN3CCOCC3)cc2)CC1 [MBX-8252] | 5.4 µg/mL | 1.07 µg/mL | – | –
O=C(c1ccsc1)N1CCc2cc(COc3ccncc3)ccc2C1 [MBX-8308] | 4.3 µg/mL | 1.90 µg/mL | – | –
CN(C)Cc1ccc(CC2CCN(S(=O)(=O)c3ccc(F)cc3)CC2)cc1 [MBX-8439] | 9.76 µg/mL | 0.78 µg/mL | – | –
O=S(=O)(c1cccc(F)c1)N1CCC(Cc2ccc(N3CCOCC3)cc2)CC1 [MBX-8222] | > 21 µg/mL | >21 µg/mL | – | –
O=C(c1ccccn1)N1CCC(Cc2ccc(COc3ccncc3)cc2)CC1 [MBX-7729] | 15 µg/mL | 15.00 µg/mL | did not result in appreciable increase in potency | –
CC(c1ccc(CC2CCN(S(=O)(=O)c3cccc(F)c3)CC2)cc1)N1CCOCC1 (stereo not shown) [MBX-8358] | 2.79 µg/mL | 0.44 µg/mL | – | –
O=S(=O)(c1ccc(F)cc1)N1CCC(Cc2ccc(CN3CCOCC3)cc2)CC1 [MBX-8145] | 0.3 µg/mL | 0.08 µg/mL | – | 6 fold
CC(c1ccsc1)N1CCC(Cc2ccc(COc3ccncc3)cc2)CC1 (stereo not shown) [MBX-7821] | > 15 µg/mL | >15 µg/mL | – | –
O=C(c1ccsc1)N1CCC(Cc2ccc(COc3cncnc3)cc2)CC1 [MBX-8033] | 39 µg/mL | 27.00 µg/mL | complete loss of activity | –
O=C(c1csc(Cl)c1)N1CCN(Cc2ccc(CN3CCOCC3)cc2)CC1 [MBX-8249] | > 21 µg/mL | 21.00 µg/mL | – | –
O=C(c1ccsc1)N1CC[C@@H](Cc2ccc(COc3ccncc3)cc2)C1 [MBX-8431] | 3.78 µg/mL | 1.14 µg/mL | – | –
O=C(c1ccc(CC2CCN(S(=O)(=O)c3cccc(F)c3)CC2)cc1)N1CCOCC1 [MBX-8188] | > 22 µg/mL | >22 µg/mL | not tolerated | –
O=S(=O)(NC1CCN(Cc2ccc(CN3CCOCC3)cc2)CC1)c1ccc(F)cc1 [MBX-8284] | > 22 µg/mL | >22 µg/mL | – | –
O=S(=O)(c1ccc(Cl)cc1)N1CCC2(CC1)CC(CCOc1ccncc1)CCO2 (stereo not shown) [MBX-7877] | 3.19 µg/mL | 0.80 µg/mL | – | –
O=C(c1ccsc1)N1CCC(Cc2ccc(OCc3ccncc3)cc2)CC1 [MBX-8024] | 19.6 µg/mL | 19.60 µg/mL | not optimal for potentiation of fluconazole | –
COc1ccc(C(=O)N2CCC(Cc3ccc(COc4ccncc4)cc3)CC2)cc1 [MBX-7728] | 8.3 µg/mL | 8.30 µg/mL | – | –
O=C(c1ccsc1)N1CCC(Cc2ccc(COc3cnc4scnc4c3)cc2)CC1 [MBX-8219] | 2.81 µg/mL | 2.81 µg/mL | – | –
O=C(c1ccc(Cl)s1)N1CCC2(CC1)CC(CCOc1ccncc1)CCO2 (stereo not shown) [MBX-8433] | 2.53 µg/mL | 0.84 µg/mL | – | –

Source: US20260373138A1, “COMPOUNDS WITH ANTIFUNGAL PROPERTIES” (priority 2023, published 2026)
